BindingDB's records for PubMed 2989489 (Eli Lilly, 1985)
“And” between values parts separate entries of the source, which are not always exact repeats. Identical values can stand only once.

biological target: Sigma non-opioid intracellular receptor 1 (Rattus norvegicus, UniProt Q9R0C9)
Sequence (Q9R0C9 whole entry): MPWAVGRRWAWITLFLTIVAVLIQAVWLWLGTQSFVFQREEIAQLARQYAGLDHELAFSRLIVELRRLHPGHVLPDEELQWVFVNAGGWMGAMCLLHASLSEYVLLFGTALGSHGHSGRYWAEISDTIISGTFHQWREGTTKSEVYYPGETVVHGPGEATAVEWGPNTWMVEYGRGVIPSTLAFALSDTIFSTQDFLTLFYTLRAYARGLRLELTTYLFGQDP

**Q.** Which Ki does the source give for `CCC12CCN(CC3(O)CC3)C(Cc3ccc(O)cc31)C2(C)C` (stereo unspecified) here?
**A.** 229 nM

**Q.** How did the Ki turn out when `CCC1(c2ccccc2)OCC([C@H]2CCCCN2)O1` (stereo partly specified) was run?
**A.** 82 nM and 152 nM

**Q.** With `c1ccc(C2(N3CCCCC3)CCCCC2)cc1` as the compound, how does the Ki read?
**A.** 29 nM and 135 nM

**Q.** Which Ki does the source give for `c1ccc(C2(c3ccccc3)OCC(C3CCCCN3)O2)cc1` (racemic) here?
**A.** 23 nM and 141 nM

**Q.** How did the Ki turn out when `CN[C@@]1(c2ccccc2Cl)CCCCC1=O` [2-(2-Chloro-phenyl)-2-methylamino-cyclohexanone(Ketamine)] was run?
**A.** 440 nM and 1450 nM

**Q.** Which Ki does the source give for `Oc1ccc2c(c1)C13CCCCC1C(C2)N(CC1CC1)CC3` (stereo unspecified) [17-(cyclopropylmethyl)-17-azatetracyclo[7.5.3.0^{1,10}.0^{2,7}]heptadeca-2(7),3,5-trien-4-ol] here?
**A.** 226 nM and 287 nM

**Q.** `C[C@@H]1[C@@H]2Cc3ccc(O)cc3[C@@]1(C)CCN2CC1CC1` [(SSS)-12-Cyclopropylmethyl-13-methyl-12-aza-tricyclo[9.1.1.0*3,8*]trideca-3(8),4,6-trien-6-ol(cyclazocine)] was tested. Which Ki did it give?
**A.** 69 nM and 125 nM

**Q.** `CC1(C2(C)COC(c3ccccc3)(c3ccccc3)O2)CCCCN1` (stereo unspecified) [CAS_4792-18-1] was tested. Which Ki did it give?
**A.** 5500 nM and 1900 nM

**Q.** How did the Ki turn out when `Oc1noc2c1CCNC2` [CAS_64603-91-4] was run?
**A.** > 10000 nM

**Q.** `Cc1cccc(C2(N3CCCCC3)CCCCC2)c1` [PCP,m-OH] was tested. Which Ki did it give?
**A.** 8 nM and 77 nM

**Q.** With `C=CCN1CC[C@]2(C)c3cc(O)ccc3C[C@@H]1[C@@H]2C` [SKF 10,047 (-)] as the compound, how does the Ki read?
**A.** 117 nM and 134 nM and 229 nM and 571 nM
